Test results: publication PMC6591174, “The beneficial androgenic action of steroidal aromatase inactivators in estrogen-dependent breast cancer after failure of nonsteroidal drugs” (Cell Death & Disease, 2019)

Tests used:
MCF-7 cells = assay: Cell cycle analysis by flow cytometry; assay type: cell-based, human; settings: 100 nM, 72 h
Description: Fig. 2 Proliferative response of cancer cells to indicated compounds. a–c the effect of concentrations of different compounds on the growth of the cells. Cells were cultured in 10% PRF-CT with E2 1 nM (MCF-7 and ZR-75-1) or without E2 (MDA-MB-231) for 3 days before plating. Cells were seeded in 96-well plates and 24 h later they were exposed to different concentrations (1 nM– 10 μM) of compounds for 6 days (MCF-7 and ZR-75-1) or 3 days (MDA-MB-231). Cell growth was measured as described in the “Materials and methods”. The proliferation of cells is expressed as the ratio of the cells compared with the control wells (untreated cells). d, e Influence of different compounds on the cell cycle of MCF-7 cells. MCF-7 cells were cultured in 10% PRF-CT with E2 (1 nM) for 3 days before plating. Cells were seeded in six-well plates and, the next day, starved in PRF for 24 h. Cells were exposed to different compounds at a concentration of 100 nM for 72 h, and then subjected to cell-cycle analysis as described in “Materials and methods”. f MCF-7 cells on poly-L-lysine-coated glass coverslips were exposed to compounds (100 nM) in 10% PRF-CT with 1 nM E2 for 72 h. Control cells were treated with vehicle. DAPI stains DNA, and the secondary anti-mouse antibody to detect the antibody bound to Ki-67 is labeled with the cyanine dye Cy3. The cells were stained with DAPI (blue). Immunofluorescence staining of Ki-67 of cells was observed using fluorescence microscope. Red: Ki-67; blue: nucleus.Typical image is shown. Scale bars: 10 μm. Data represent a mean ± SEM of three independent experiments, each in triplicate; bars, SEM. *P ≤ 0.05 vs. control
Cell cycle kinetics were studied by flow cytometry. MCF-7 cells were cultured in 10% PRF–CT with 1 nM E2 for 3 days prior to seeding on six-well plates (10^5 cells/well). Following seeding of cells, cells were serum starved for 24 h, and then treated with media containing 100 nM of the test compounds for 72 h. Cell-cycle analysis was performed as described by Ando[20].

[1] = tested on: CCND1 promoter in MCF-7 cells; assay: ChIP-qPCR on the CCND1 promoter; assay type: cell-based, human; settings: 10^-7 M, 2 h
Description: Fig. 7 The effect of activated AR on CCND1 expression by changing histone modifications of its promoter. The experimental protocol was as described in “Materials and methods”. a and b The expression of the cyclin D1 protein. Blots were also probed for tubulin (bottom) to verify equal amounts of protein loaded in each lane. The densitometric evaluation is calculated by ImageJ. c The abundance of cyclin D1 mRNA has been detected by real-time reverse transcription-PCR, as described in “Materials and methods”. d–h MCF-7 cells were grown in 10 cm dishes. Confluent cultures (80%) were shifted to PRF for 24 h and then treated with indicated compounds at a concentration of 10^−7 M or left untreated in PRF-CT for 2 h. ChIPs were carried out on serum starved MCF-7 cells as described in “Materials and methods”. Cells were lysed and proteins were precipitated using antibodies against AR (d), H3K4me3 (e), H3K9me3 (f), H3K9ac (g), H3K27ac (h) or rabbit IgG (2 μg/sample each). In control samples (Ig), normal rabbit IgG was used instead of the primary antibodies as control of antibody specificity. Inputs DNA were amplified as loading controls. Five regions of CCND1 promoter were examined by quantitative PCR analysis. The region containing the ARE site was detected by PCR with specific primers (p1-ARE) for antibodies of AR and H3K4me3. Specific primers P4 and p5 were used to investigate the changes in methylation or acetylation of H3K9.
MCF-7 cells were grown in 10 cm dishes. Confluent cultures (80%) were shifted to PRF for 24 h and then treated with various drugs at a concentration of 10^–7 M (as shown in Fig. 8) or left untreated in 5% PRF-CT for 2 h. Following treatment, ChIP assay was performed as described by Morelli et al. and using a simple Chip plus Sonication Chromatin IP kit (Cell Signaling Technology, #56383), following the manufacturer’s protocol. The cells were sonicated 10 times for 10 s at 20% of maximal power (Fisher Sonic Dismembrator) and then treated according to the protocol. Anti-AR (Cat. No. 5153), anti-H3K4me3 (Cat. No. 9751), anti-H3K9me3 (Cat. No. 13969), anti-H3K9ace (Cat. No. 9649), anti-H3K27ace (Cat. No. 8173) or rabbit IgG (Cat. No. 3900) of Cell Signaling Technology antibody were used to precipitate chromatin fragments from cell extracts. We used real-time quantitative PCR (SYBR green) to amplify the DNA fragment in the antibody precipitated DNA and the unprecipitated input DNA to calculate ΔCT values. A specific primer pair was used to amplify 134 bp of the ARE-containing cyclin D1 promoter fragment. For the histone modification antibody, another four pairs of prime locating at 1000 to −2000 bp region from the transcription initiation site of CCND1 were used besides the prime containing ARE. The RQ values (RQ = 2^–ΔCT) are presented and reflect the precipitated DNA as a percentage of the input DNA.

C[C@]12CCC(=O)C[C@@H]1CC[C@@H]1[C@@H]2CC[C@]2(C)[C@@H](O)CC[C@@H]12 [DHT, dihydrotestosterone]
influence on the cell cycle (G1/G0 increase, S-phase decrease) (MCF-7 cells): most significant influence on the cell cycle
AR binding to ARE site of CCND1-promoter [1]: strong increase

C=C1C[C@H]2[C@@H]3CC[C@H](O)[C@@]3(C)CC[C@@H]2[C@@]2(C)C=CC(=O)C=C12 [17-HEXE, 17-hydroexemestane]
AR binding to ARE site of CCND1-promoter [1]: almost as strong as that of DHT
H3K4me3 at CCND1 promoter, relative to untreated control cells [1]: < 20%
H3K9ac at CCND1 promoter [1]: decreased
H3K9me3 at CCND1 promoter [1]: increased
H3K27ac at CCND1 promoter [1]: unchanged

C[C@]12CC[C@H]3[C@@H](CCC4=C(O)C(=O)CC[C@@]43C)[C@@H]1CC[C@@H]2O [4-OHT, 4-hydroxytestosterone]
influence on the cell cycle (G1/G0 increase, S-phase decrease) (MCF-7 cells): most effective of the tested compunds
AR binding to ARE site of CCND1-promoter [1]: almost as strong as that of DHT
H3K4me3 at CCND1 promoter, relative to untreated control cells [1]: < 20%
H3K9ac at CCND1 promoter [1]: decreased
H3K9me3 at CCND1 promoter [1]: increased
H3K27ac at CCND1 promoter [1]: unchanged
